Series [1] can be described thus: Acute toxicity (LD0, LD50). The class given is in vivo. To be noted: po, mice, single dose. As for the experimental part:
[…]. The doses 500, 750, 1000 and 2000 mg/Kg were administered orally. Each group included 5 mice. […] The survived animals were autopsied for asserting the absorption of compound through g.i.t. The LD50 was determined according to the method described in Litchfield and Wilcoxon (J. Pharmacol. Exp. Ther. 1949, 96:99-113).

The subject of a further series is H1299 and A549 cells. The experiment in a line: Matrigel invasion assay. The class given is cell-based, human. To be noted: 48 hr treatment, FIG. 2. As for the experimental part: The in vitro invasiveness of H1299 and A549 cells in the presence of various concentrations of NRC compounds (as determined by MTT assay) was assessed using a modified Boyden chamber assay. Cells were treated with these compounds for 48 hr. 1×10^6 cells were suspended in 600 μl of serum-free medium supplemented with 0.2% BSA and placed in the upper compartment of the transwell chambers (Corning Costar Fisher Scientific cat #07-200-158, Pittsburgh Pa.) coated with matrigel (0.7 mg/ml). The lower compartment of the chamber was filled with 200 μl of serum medium and the cells were allowed to migrate for 24 hr. After incubation, the cells were fixed and stained with Hema-3 and quantified as previously described (Mohanam et al. 1993). The migrated cells were quantified as percent invasion.

A further series deals with A549 human lung tumors. Nature of the series: Subcutaneous lung tumors in nude mice. The class given is in vivo. To be noted: 100 mg/Kg dose. The text has this: Nude mice were implanted with 2×10^6 A549 cells in the right hind limb flank.
Series [2] has as its system A549 luciferase expressing cells. Nature of the series: Lung tissue harvested from nude mice after treatment. To be noted: oral/ip routes, various concentrations, FIG. 4. Format: in vivo.
For series [3] the test system is unchanged. Nature of the series: Nude mice implanted with A549 luciferase expressing cells. Format: in vivo. To be noted: oral and ip routes, FIGS. 6 & 7.
The subject of the next series is VEGFR. The experiment in a line: Down regulation of receptors, western blot in A549 cells. The class given is cell-based, human. To be noted: FIG. 8. As for the experimental part: (§1) Levels of Erb-1, Erb-2, Erb-3, Erb-4 and VEGFR were determined by western blot analysis.
Background: Immunoblotting shows a protein as a band on a membrane.

Series [4] can be described thus: 30 day repeated dose study. To be noted: both sexes, dog, in vivo, po, beagle dogs, orally by capsule, read-out: no observed adverse effect level (NOAEL). As for the experimental part:
The methods followed were as per CPMP/SWP/1042/99 (July 2000) and ICH S3A (March (1995)) guidelines. Prior to the 30 day repeated dose study, a dose range finding study was conducted, which included single dose MTD study followed by a 10 day repeated dose study. For the single dose MTD study, two dogs (1 male and 1 female) of beagle breed, obtained from Marshall's Farm, China, were used. The route of dosing was oral, by gelatin capsule. Based on the results of the dose range finding study, doses for the 30 days study were selected.
The 30 day repeated dose study employed 12 male and 12 female dogs (Marshall's Farm, China). The dogs were acclimatized for a minimum period of 2 weeks and randomly divided into four main groups (G1-G4), each group comprising of 3 dogs per sex. […]
(§2) The study also tracked body weight (weekly), food consumption (daily), opthalmological status (start and end), hematological and biochemical analyses (start and end), toxicokinetics analysis of plasma (start and end). At the end of the study, all dogs were euthanized by a humane and accepted procedure, subjected to a gross post-mortem examination, organ weights (absolute and relative) were determined, and histopathological examination was carried out.

For series [5] the following is noted: po, Swiss Albino mice, suspended in 2% gum acacia.
Series [6] in a line: in vivo. To be noted: both, Swiss albino, mouse, po.
Series [7] can be described thus: Acute oral gavage toxicity (MTD).
Experimental: (§3) 20 male and 20 female Swiss albino mice were randomly divided into four groups (G1-G4). Each group was 5 male and 5 female Swiss albino mice. […] G1 was treated with placebo and served as a control. […] The mid dose group animals (G3-treated with 500 mg/kg b.wt) were administered the dose formulation twice with a gap of approximately 1 hour. Animals from high dose group (G4-treated with 1000 mg/kg b.wt) received the dose formulation four times with a gap of approximately one hour.
In a further series the target is ERBB2 (Homo sapiens, UniProt P04626). The experiment in a line: Down regulation of receptors, western blot in A549 cells. Format: cell-based. Details: endogenous in cells; host or cells: A549. To be noted: FIG. 8. As for the experimental part:
as §1

The next series has as its target ERBB4 (Homo sapiens, UniProt Q15303). The series is described as above. The arrangement: endogenous in cells; host or cells: A549. To be noted: FIG. 8. The class given is cell-based. As for the experimental part:
as §1

Series [8] can be described thus: Toxicokinetics in 30 day repeated dose study. To be noted: for Tmax: beagle, dog, plasma, po, read-out: median Tmax. The class given is in vivo, beagle dogs. As for the experimental part:
The 30 day repeated dose study employed 12 male and 12 female dogs (Marshall's Farm, China). The dogs were acclimatized for a minimum period of 2 weeks and randomly divided into four main groups (G1-G4), each group comprising of 3 dogs per sex. The animals were dosed orally with capsules of NRC-2694A for a period of 30 consecutive days at dose levels of 10 mg/kg b.wt/day (G2-low dose), 20 mg/kg b.wt/day (G3-mid dose) and 40 mg/kg b. wt/day (G4-high dose). […] The control group (G1-0 mg/kg b. wt/day) animals were dosed by oral capsule with placebo.
as §2
The toxicokinetic parameters viz.

Series [9] has as its system Salmonella typhimurium (TA 98, TA 100, TA 102, TA 1535 and TA 1537). The experiment in a line: Ames bacterial reverse mutation assay. To be noted: 0.0125-1.2500 mg/plate, with and without S9. Format: cell-based. As for the experimental part:
The present study was conducted by the direct plate incorporation method with five tester strains of Salmonella typhimurium (TA 98, TA 100, TA 102, TA 1535 and TA 1537). […] Simultaneously, negative control cultures received DMSO and the respective positive controls received the mutagens 2-Amino anthracene, 2-Nitrofluorene, Sodium azide, 9-Aminoacridine and Mitomycin C (Sigma, St. Louis). In order to study the role of metabolic activation, cultures were incubated both with and without S9 mixture. The induction of Histidine positive colonies was computed and results were statistically treated for comparison.

Series [10] in a line: Functional observational battery (FOB). Format: in vivo, Wistar rats. To be noted: 75, 125 and 250 mg/kg b.wt single oral dose, 60-120 min post treatment. As for the experimental part:
The study was conducted in accordance with “[…] Safety Pharmacology Studies for Human Pharmaceuticals, ICH” July 2001, and as per this study protocol. […] Rats that had been fasted for 16 to 18 hours (access to water was not interrupted) were dosed with the compound or water. The rats were administered the compound in an aqueous formulation at three levels, 75, 125 and 250 mg/kg b.wt, as a single oral dose by gavage. The control group received water. The rats were subjected to the FOB 60-120 min. after drug administration.
Animals were subjected to the FOB one at a time except for the multiple activity cage where four animals were placed in four different cages simultaneously. Once complete, the animals were returned to their home cage and the cage placed back on the stand.

A short description of series [11]: Respiratory function, whole body plethysmograph. The class given is in vivo, Wistar rats. To be noted: 75, 125 and 250 mg/kg body weight, oral, 3 hours. As for the experimental part: This study evaluated the effect of NRC-2694A monohydrochloride on respiratory function in conscious Wistar rats following administration of a single dose using a whole body plethysmograph. The study was conducted in accordance with “S7A Safety Pharmacology Studies for Human Pharmaceuticals, ICH” issued July 2001. The study used a parallel design with one vehicle and three test item treated groups. […] Male Wistar rats were placed in plethysmography chambers and baseline respiratory parameters were recorded for 30 minutes. Following drug administration respiratory parameters were recorded continuously for 3 hours.

Series [12] in a line: Cardiovascular parameters in telemetered dogs. The class given is in vivo. To be noted: male Beagle dogs. As for the experimental part:
The study was conducted in accordance with ICH “S7A Safety Pharmacology Studies for Human Pharmaceuticals, Note for Guidance on Safety Pharmacology Studies for Human Pharmaceuticals, July 2001”. The doses tested were 0, 15, 30 and 60 mg/kg b.wt. given orally by gelatin capsule. Four male Beagle dogs, each implanted with a TL1IM2-D70-PCT transmitter (Data Sciences International, USA), were used for the study. During the study, the dogs were administered 4 oral treatments representing placebo and all test substance treatment groups with a three day (˜72 hour) wash-out period between each administration, using a Latin square cross-over design.
On dosing days, the telemetered dogs were observed once before commencement of data collection, continuously through 2 hours post-dose remotely and ˜8 hours post-dose for changes in behaviour. Cardiovascular parameters (systolic, diastolic and mean blood pressure, pulse pressure and heart rate) were recorded continuously for ˜60 minutes before dosing and up to 24 hours after dosing. Systolic, diastolic and mean blood pressures, pulse pressure and heart rate were obtained from the femoral artery waveform. Electrocardiograms were recorded continuously for ˜60 minutes before dosing and up to 24 hours after dosing. […] Heart rate and QT intervals were determined from the ECG's.

The nature of series [13]: in vivo. To be noted: both, Swiss albino, mouse, po. This is another data set of the same source.
Experimental: as §3
A short description of series [14]: Acute oral gavage toxicity (MTD). To be noted: G4, 1000 mg/kg body wt., rats.

Structures can show the parent of a compound that is named as a salt. Where two headings read alike, the source gives them in different places.

Chain of ERBB2 (P04626 23-1255): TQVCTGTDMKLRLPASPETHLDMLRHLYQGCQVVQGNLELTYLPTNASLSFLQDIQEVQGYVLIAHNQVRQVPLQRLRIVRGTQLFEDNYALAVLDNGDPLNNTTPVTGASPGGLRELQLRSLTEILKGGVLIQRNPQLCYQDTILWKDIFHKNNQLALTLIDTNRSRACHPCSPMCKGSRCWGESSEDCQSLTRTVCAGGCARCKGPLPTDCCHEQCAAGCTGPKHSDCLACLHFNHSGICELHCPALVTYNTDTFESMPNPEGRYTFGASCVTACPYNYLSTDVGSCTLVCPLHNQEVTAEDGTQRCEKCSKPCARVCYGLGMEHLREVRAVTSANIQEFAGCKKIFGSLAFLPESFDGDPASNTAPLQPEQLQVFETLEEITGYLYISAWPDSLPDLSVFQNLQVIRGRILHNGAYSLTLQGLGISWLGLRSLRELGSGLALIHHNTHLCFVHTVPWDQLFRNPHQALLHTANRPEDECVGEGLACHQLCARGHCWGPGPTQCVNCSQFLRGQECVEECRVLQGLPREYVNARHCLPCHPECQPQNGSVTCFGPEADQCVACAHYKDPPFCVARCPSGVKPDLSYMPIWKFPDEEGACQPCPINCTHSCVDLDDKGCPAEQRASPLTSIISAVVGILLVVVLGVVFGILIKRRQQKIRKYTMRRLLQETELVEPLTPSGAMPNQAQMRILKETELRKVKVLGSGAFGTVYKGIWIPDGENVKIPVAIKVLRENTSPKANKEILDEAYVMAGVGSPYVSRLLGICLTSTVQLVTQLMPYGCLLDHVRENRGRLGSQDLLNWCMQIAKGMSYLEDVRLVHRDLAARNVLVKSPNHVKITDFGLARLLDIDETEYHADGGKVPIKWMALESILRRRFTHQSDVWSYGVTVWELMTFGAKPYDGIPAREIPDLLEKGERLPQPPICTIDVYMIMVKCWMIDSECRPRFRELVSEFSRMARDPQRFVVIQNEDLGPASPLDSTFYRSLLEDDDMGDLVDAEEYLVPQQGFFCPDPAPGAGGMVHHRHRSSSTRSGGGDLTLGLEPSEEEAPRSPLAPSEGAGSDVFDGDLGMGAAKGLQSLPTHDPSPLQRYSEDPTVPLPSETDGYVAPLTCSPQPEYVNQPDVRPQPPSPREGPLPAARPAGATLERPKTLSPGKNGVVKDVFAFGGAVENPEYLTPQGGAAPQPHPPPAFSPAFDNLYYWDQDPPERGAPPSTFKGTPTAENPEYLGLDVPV
Chain of ERBB4 (Q15303 26-1308): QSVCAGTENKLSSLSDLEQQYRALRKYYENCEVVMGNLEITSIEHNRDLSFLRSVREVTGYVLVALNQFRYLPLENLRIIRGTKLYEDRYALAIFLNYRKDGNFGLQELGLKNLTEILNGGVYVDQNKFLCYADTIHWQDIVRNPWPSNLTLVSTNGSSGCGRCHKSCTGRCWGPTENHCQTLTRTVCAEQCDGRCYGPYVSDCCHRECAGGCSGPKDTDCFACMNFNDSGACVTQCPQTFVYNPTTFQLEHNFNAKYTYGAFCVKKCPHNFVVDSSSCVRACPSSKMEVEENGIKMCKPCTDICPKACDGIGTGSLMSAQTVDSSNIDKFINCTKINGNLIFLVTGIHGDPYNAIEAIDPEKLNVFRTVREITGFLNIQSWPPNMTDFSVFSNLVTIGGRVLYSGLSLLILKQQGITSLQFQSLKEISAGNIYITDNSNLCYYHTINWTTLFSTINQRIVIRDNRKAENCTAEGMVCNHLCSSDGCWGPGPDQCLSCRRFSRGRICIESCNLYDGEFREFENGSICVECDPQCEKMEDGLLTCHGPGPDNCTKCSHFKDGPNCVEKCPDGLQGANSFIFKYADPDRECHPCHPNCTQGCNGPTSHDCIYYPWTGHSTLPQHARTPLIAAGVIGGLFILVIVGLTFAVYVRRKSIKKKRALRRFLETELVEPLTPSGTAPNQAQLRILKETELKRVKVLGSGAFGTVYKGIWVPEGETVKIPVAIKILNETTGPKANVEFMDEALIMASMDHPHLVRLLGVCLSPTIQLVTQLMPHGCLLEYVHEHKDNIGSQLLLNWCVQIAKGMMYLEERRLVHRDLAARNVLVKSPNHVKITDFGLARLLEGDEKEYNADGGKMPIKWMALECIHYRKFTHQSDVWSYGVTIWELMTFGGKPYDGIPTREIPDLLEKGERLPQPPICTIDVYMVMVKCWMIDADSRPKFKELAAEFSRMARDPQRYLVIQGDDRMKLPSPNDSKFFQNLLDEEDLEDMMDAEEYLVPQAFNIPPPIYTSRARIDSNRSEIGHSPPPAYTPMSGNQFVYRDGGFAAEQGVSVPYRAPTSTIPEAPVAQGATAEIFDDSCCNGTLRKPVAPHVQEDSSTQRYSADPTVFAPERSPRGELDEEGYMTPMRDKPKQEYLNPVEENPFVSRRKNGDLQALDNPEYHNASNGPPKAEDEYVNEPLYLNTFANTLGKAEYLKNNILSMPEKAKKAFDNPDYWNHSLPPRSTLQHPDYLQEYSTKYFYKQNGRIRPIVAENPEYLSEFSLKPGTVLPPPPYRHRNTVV
Experimental for A549 and H1299 cells: Solubilization of the cells by the addition of a detergent results in the liberation of the crystals, which are solubilized. The number of surviving cells is directly proportional to the level of the formazan product created. The color can then be quantified using a simple colorimetric assay. This assay was done using 0-1000 ng/ml concentrations of Erlotinib and the test compounds in A549 and H1299 cells.

By LD50 is commonly meant the dose expected to kill half of the subjects tested. Broadly, the NOAEL is the highest dose or exposure tested at which no adverse effect was seen. As a reminder, the IC50 is the concentration that gives 50% inhibition. Read a low IC50 as higher potency. For `C#Cc1cccc(Nc2ncnc3cc(OCCOC)c(OCCOC)cc23)c1` [Erlotinib HCl, N-(3-Ethylnylphenyl)-6,7-bis(2-methoxyethoxy)-4-quinazolinamine], the median lethal dose (LD50) at 14 days in series [1] (both sexes, mouse, in vivo) is 805 mg/kg. The compound further came in with an LD0 in series [1] (no mortality at end of 7 days) of 500 mg/kg. In addition, the invasion result in the series with H1299 and A549 cells is “dose dependent decrease in invasion”. For the same compound, the tumor regression result in the series on A549 human lung tumors is “tumors were still present”. In addition, the “residual tumors in harvested lungs” value in [2] was “tumors were still present”. In [3], the “tumors at the end of 42 days treatment” value is recorded as “residual tumors were still present”. For the same compound, the VEGFR levels entry in the series on VEGFR is on record as “no such indication was seen”. For the same compound, in [4], the NOAEL at 30 days is 5 mg/kg/day. Also, the MTD in series [5] came out at 500 mg/kg. In the series with A549 and H1299 cells, this compound displayed an IC50 of 0.836 µg/mL. In “in vivo [6]”, this compound registered an MTD at 72 h of 500 mg/kg. The same compound displayed an MTD at 14 days in series [7] (both, Swiss albino, mouse, in vivo, po) of 500 mg/kg. Moreover, the “Erb B2 levels” value at ERBB2 is on record as “no such indication was seen”. Also, on ERBB4, the “Erb B4 levels” value was “no such indication was seen”.
What is called Tmax is the time from dosing to the highest level. With `C#Cc1cccc(Nc2ncnc3cc(OC)c(OCCCN4CCOCC4)cc23)c1.Cl` [NRC-2694 monohydrochloride, N-(3-ethynylphenyl)-7-methoxy-6-[3-(4-morpholinyl)propoxy]-4-quinazolinamine mono hydrochloride], the NOAEL at 30 days in series [4] came to 10 mg/kg/day. The Tmax in series [8] (day 1, female, 10 mg/kg) is 2 h; in series [8] (day 1, female, 40 mg/kg), 4 h; in series [8] (day 1, male, 10 mg/kg), 2 h; in [8] (day 1, male, 20 mg/kg) it was 3 h; in [8] (day 1, male, 40 mg/kg) it was 2 h; in series [8] (day 30, female, 20 mg/kg) it was 4 h. In addition, the Cmax entry in series [8] (three dose levels, male and female dogs) is “dose-dependent change in the Cmax”. For the same compound, the “mutagenicity (His revertant colonies)” value in series [9] is on record as “non-mutagenic”. In addition, in series [10], the functional observational battery result is listed as “did not show any adverse effects at the tested doses”. In addition, in series [11], the “respiratory rate, tidal volume, minute volume, and Penh” value is recorded as “did not influence any of the observed parameters”. In addition, the “cardiovascular parameters (blood pressure, pulse pressure, heart rate, QT, QTcf)” value in [12] (15, 30 and 60 mg/kg b.wt. oral) is on record as “no significant negative effects on cardiovascular parameters”. In series [12] (cardiovascular parameters, oral), the “no observed effect level” value stood at 60 mg/kg b.wt. The MTD at 14 days in “in vivo [13]” was 1000 mg/kg. Also, the “toxic signs or mortality” value in series [7] (250 mg/kg and 500 mg/kg, oral gavage, mice) is reported as “did not produce any toxic signs or mortality”. Besides, in [14], the “chromodacryoorhea (animals affected)” value is on record as 10/10. Besides, in series [14], the “mild to severe lethargy (animals affected)” value was 10/10. Moreover, the “piloerection (animals affected)” value in series [14] was 10/10. Moreover, the “ptosis (animals affected)” value in [14] was 4/10. Also, the “weakness (animals affected)” value in series [14] was 1/10.

Values taken from patent US8921362B2, “6,7-dialkoxy quinazoline derivatives and methods of treating drug resistant and other tumors” (Natco Pharma Limited, priority 2008, dated 2014).
